In article PMC12386934, “Characteristics and Potential of KSL, KSL-W, and Dadapin-1 Antimicrobial Peptides for Preventing Infections of Orthopedic Prosthetic Devices: Identifying the Most Robust Candidate” (International Journal of Molecular Sciences, 2025):
Where a SMILES comes first, the peptide text is derived from it.

Columns and labels:
[1] = cited from earlier work
Excerpt: In 2021, aiming at identifying AMPs for a possible application in the prevention or treatment of prosthetic orthopedic infections, our group conducted an extensive systematic review on known short-chain AMPs, primarily based on the Database of Antimicrobial Activity and Structure of Peptides (DBAASP). The choice of considering short-chain peptides was dictated by the potentially lower allergenic risk offered by small peptides. The query included all monomeric AMPs with a length spanning from 7 to 13 amino acids. The research results provided a list of 415 entries, which were then extend ...

[2] = tested on: MG63 cells co-cultured with S. aureus ATCC 25923; assay: Suppression of S. aureus cytotoxicity in co-culture, LDH assay; format: cell-based, human; details: MG63 co-cultured with S. aureus ATCC 25923, 24 h, lowest concentration tested
Protocol: KSL-W was the peptide selected to investigate the efficacy in suppressing the cytotoxicity of S. aureus ATCC 25923 on osteoblast-like MG63 cells. S. aureus ATCC 25923 was thawed from the frozen stock and plated on MHA and incubated at 37 °C for 24 h.
A suspension of MG63 cells was prepared in complete DMEM at a concentration of 5 × 10^4 cells/mL. A total of 100 µL of cell suspension was added to each well of a 96-well cell culture-treated plate (137101, Nunclon Delta Black Microwell, ThermoScientific, Thermo Fisher Scientific, Segrate, Italy). After cell seeding, the plate was incubated for a day at 37 °C under standard culture conditions. […]
Cytotoxicity was assessed by measuring the release of lactate dehydrogenase (LDH) from damaged cells by the LDH Cytotoxicity Assay (ab197004, Abcam, Cambridge, UK), strictly following the instructions of the manufacturer. […] After 10 min shaking, the plate was read in fluorescence (excitation: 535 nm; emission 587 nm) by an Infinite 200 PRO mod. M PLEX multifunction plate reader (Tecan Group Ltd., Männedorf, Switzerland). […]
Data in relative fluorescence units (RFU) from the investigation on KSL-W suppression of S. aureus cytotoxicity were processed as follows. The mean of the duplicate readings from each single treated well was calculated. […]

## CC(C)[C@H](NC(=O)[C@H](Cc1c[nH]c2ccccc12)NC(=O)[C@H](Cc1ccccc1)NC(=O)[C@@H](NC(=O)[C@@H](NC(=O)[C@H](CCCCN)NC(=O)[C@@H](N)CCCCN)C(C)C)C(C)C)C(=O)N[C@@H](CCCCN)C(=O)N[C@@H](Cc1ccccc1)C(=O)N[C@@H](CCCCN)C(=O)O [KSL-W] (H-KKVVFWVKFK-OH)
[1]
  stability to enzymic activity such as trypsin-catalyzed cleavage: greater stability
[2]
  concentration completely suppressing cytotoxicity due to S. aureus: 75 µg/mL
